Measured values published in patent US5116857A, “Method of increasing gastrointestinal motility with substituted benzamides” (Laboratoires Delagrange Div. Societe d'Applications …, priority 1988, dated 1992).

Legend:
guinea-pigs = test: Gastric emptying measured by x-ray localization of barium sulfate spheroids in guinea pigs after i.p. administration; format: in vivo, guinea pig; details: for Gastric emptying (percentage of spheroids leaving the stomach) after 1 hour / Gastric emptying (percentage of spheroids leaving the stomach) after 2 hours: 1 mg/kg i.p.; for Gastric emptying (percentage of spheroids leaving the stomach) after 1 hour / Gastric emptying (percentage of spheroids leaving the stomach) after 2 hours / Gastric emptying after 2 hours: guinea-pigs; for Gastric emptying (percentage of spheroids leaving the stomach) after 2 hours: control group 28%; for Gastric emptying at 1 mg/kg compared with metoclopramide 5 mg/kg: 1 mg/kg of compound vs 5 mg/kg of metoclopramide; for Gastric emptying after 2 hours: 5 mg/kg, control group 24.8%
Method: Feeding of the animals were interrupted 14 hours before measurement of gastric emptying. The experimentation was conducted under weak illumination, with the least possible noise and disturbances, solely by experimentors having daily contact with the guinea pigs and having sufficient initial training in handling the animals. The animals were then subjected to minimal stress.
The measurement of gastric emptying was carried out by x-ray localization (50 KV, 30 mA, 0.5-0.8 s.), on Kodak plates (NS-2T, 13×18 cm) of barium sulfate spheroids (approximately 30, 1 mm in diameter) coated with polystyrene, which the guinea pigs were made to swallow by placing them in the back of the throat, in a solution of 0.2 ml of 1% carboxymethylcellulose with 0.05 ml of glycerine, so as to initiate rapid and voluntary deglutition.
The passage of the spheroids was followed for 3 to 4 hours, the animals being placed in their customary cages for that time and taken out only 5 minutes before x-ray exposure (at intervals of 30-60 minutes). During the x-ray procedure, the animals were placed in individual holding cages, keeping them comfortably in a stable position, the cage being sufficiently sized (33×15 cm and 13 cm high) so as to comfortably maintain a 450 to 550 gram guinea pig between the padded walls, the animal being trained to enter the cage and remain there tranquilly and without stress.
Gastric emptying was measured by the number of spheroids leaving the stomach. For each dose of product studied, 6 guinea pigs were used, and the responses were compared to those of guinea pigs receiving the appropriate vehicle.
Compound (I) was studied at doses of 1 mg/kg and 0.01 mg/kg, Compounds (II) to (V) were studied at a dose of 1 mg/kg, the compounds (VI) to (VIII) at a dose of 5 mg/kg. Metoclopramide was evaluated at doses of 1 mg/kg and 5 mg/kg.
The results are recorded in graphic form in FIG. 1. The compounds according to the invention and metoclopromide were dissolved in distilled water and the doses are expressed as base.
This emptying is expressed, in FIG. 1 and Table 1, as a percentage of spheroids leaving the stomach.

[1] = Acute toxicity, intravenous, male mice; details: mouse, in vivo, read-out: LD50 (median lethal dose)
Excerpt: The acute toxicity of the compounds of the invention administered intravenously was studied in male mice.

Row | Structure (SMILES) | Gastric emptying (percentage of spheroids leaving the stomach) after 1 hour (guinea-pigs) | Gastric emptying (percentage of spheroids leaving the stomach) after 2 hours (guinea-pigs) | Gastric emptying at 1 mg/kg compared with metoclopramide 5 mg/kg (guinea-pigs) | LD50 [1] | Gastric emptying after 2 hours (guinea-pigs) | Effect on gastric emptying (in words) (guinea-pigs; intraperitoneal, immobilized guinea-pigs, FIG. 1)
1 | CCN(CC)CCNC(=O)c1cc(Cl)c(NC2=NCCN2)cc1OC [Compound I, N-[2-(diethylamino)ethyl]-2-methoxy-4-[(4,5-dihydro-1H-imidazol-2-yl)-amino]-5-chlorobenzamide] | 24% | 63% | a result equivalent to the use of 5 mg/kg of metoclopramide | 12.8 to 14.4 mg/kg | – | –
2 | CCN(CC)CCNC(=O)c1cc(Cl)c(NC2=NCCS2)cc1OC [Compound II, N-[2-(diethylamino)ethyl]-2-methoxy-4-[(4,5-dihydro-2-thiazolyl)amino]-5-chlorobenzamide] | 12.5% | 60% | – | 40.6 to 48.7 mg/kg | – | –
3 | CCN(CC)CCNC(=O)c1cc(Cl)c(NC2=NCCO2)cc1OC [Compound III, N-[2-(diethylamino)ethyl]-2-methoxy-4-[(4,5-dihydro-2-oxazolyl)amino]-5-chlorobenzamide] | 20% | 57% | – | 91 to 116 mg/kg | – | –
4 | CNC(=O)c1cc(Cl)c(NC2=NCCN2)cc1OC [Compound IV, N-methyl-2-methoxy-4-[(4,5-dihydro-1H-imidazol-2-yl)amino] -5-chlorobenzamide] | 38% | 62% | a result equivalent to the use of 5 mg/kg of metoclopramide | 95.8 to 138 mg/kg | – | –
5 | CCN(CC)CCNC(=O)c1cc(Cl)c(NC2=NCCN2)cc1O [Compound V, N-[2-(diethylamino)ethyl]-2-hydroxy-4-[(4,5-dihydro-1H-imidazol-2-yl)-amino]-5-chlorobenzamide] | 32% | 55% | – | 65.7 to 76.7 mg/kg | – | –
6 | COc1cc(NC2=NCCN2)c(Cl)cc1C(=O)NC(C)C [Compound VII, N-isopropyl-2-methoxy-4-[(4,5-dihydro-1H-imidazol-2-yl)amino]-5-chlorobenzamide] | – | – | – | – | 46.2% | –
7 | C=CCNC(=O)c1cc(Cl)c(NC2=NCCN2)cc1OC [Compound VIII, N-allyl-2-methoxy-4-[(4,5-dihydro-1H-imidazol-2-yl)amino]-5-chlorobenzamide] | – | – | – | – | 47.4% | –
8 | CCN(CC)CCNC(=O)c1cc(Cl)c(N)cc1OC [metoclopramide, N-(2-diethylaminoethyl)-2-methoxy-4-amino-5-chlorobenzamide, reference compound] | 16% | 39% | – | 25.4 to 37.9 mg/kg | – | an increase in gastric emptying
